This passage reports Ki results from US20240376113A1 (Volastra Therapeutics, Inc., priority 2020, published 2024).

Like-named read-outs stand apart in the source and are kept apart here.

One assay concerns the target ENPP-1 ECD (Homo sapiens (Human), UniProt P22413). Nature of the assay: Inhibition of ENPP1 hydrolysis of 2′,3′-cGAMP (Assay 1). As to conditions: AMP-Glo luminescence, KI from IC50 via Cheng/Prusoff.
The target of assay [1] is ENPP1 on MDA-MB-231 cells (Homo sapiens (Human), UniProt P22413). Put plainly: Inhibition of ENPP1 hydrolysis of AMP p-nitrophenyl ester on MDA-MB-231 cells (Assay 2). It is filed as cell-based. As to conditions: pNP-AMP 0.25 mM, MDA-MB-231 cells, 37° C. 3 h, KI,app from IC50 via Cheng/Prusoff. The protocol:
Inhibition of ENPP1 Hydrolysis of AMP p-Nitrophenyl Ester on MDA-MB-231 Cells (Assay 2)
ENPP1 is normally expressed on the human metastatic breast cancer cell line MDA-MB-231. Hydrolysis of the p-nitrophenyl ester of AMP (pNP-AMP), an isostere of ATP, is selectively catalyzed by ENPP1 in the supernatant of MDA-MB-231 cell cultures. Inhibition of the hydrolysis of pNP-AMP by MDA-MB-231 at pH 7.4 and 37° C. is a good model of physiologically relevant activity of membrane-bound ENPP1 at disease-relevant expression levels.
MDA-MB-231 cells were harvested using TypLE Express Enzyme digestion and suspended in 100 μL of Leibovitz's L-15 Medium, 20% FBS, seeding the cells in a 96-well assay plate with 4.5×10^4 cells/well. Cells were incubated at 37 C with 1% CO2 for 24 h. In a separate dilution plate, 2× of top dose of compound was prepared in phenol-red free 1640 medium without FBS and then 1:3 serial diluted in the same medium. The cell culture medium of L15 medium was aspirated carefully and cells were washed with PBS once, and 50 μL per well of test compound or DMSO blank are added to the assay plate. Substrate mix (50 μL; 0.5 mM pNP-AMP in phenol-red free 1640 media without FBS) was added for a pNP-AMP final concentration of 0.25 mM. The system was incubated at 37° C. for 3 h.

Setting [2] is: Assay 1 KI values (class), 2,3-cGAMP 24 μM.
Setting [3] is: read-out: Assay 2 KI,app values (class).
[4] abbreviates: read-out: Assay 1 KI values (class), 2,3-cGAMP 24 μM.
[5] abbreviates: read-out: Assay 1 KI, 2,3-cGAMP 24 μM.

ENPP1 on MDA-MB-231 cells, sequence (P22413 whole entry): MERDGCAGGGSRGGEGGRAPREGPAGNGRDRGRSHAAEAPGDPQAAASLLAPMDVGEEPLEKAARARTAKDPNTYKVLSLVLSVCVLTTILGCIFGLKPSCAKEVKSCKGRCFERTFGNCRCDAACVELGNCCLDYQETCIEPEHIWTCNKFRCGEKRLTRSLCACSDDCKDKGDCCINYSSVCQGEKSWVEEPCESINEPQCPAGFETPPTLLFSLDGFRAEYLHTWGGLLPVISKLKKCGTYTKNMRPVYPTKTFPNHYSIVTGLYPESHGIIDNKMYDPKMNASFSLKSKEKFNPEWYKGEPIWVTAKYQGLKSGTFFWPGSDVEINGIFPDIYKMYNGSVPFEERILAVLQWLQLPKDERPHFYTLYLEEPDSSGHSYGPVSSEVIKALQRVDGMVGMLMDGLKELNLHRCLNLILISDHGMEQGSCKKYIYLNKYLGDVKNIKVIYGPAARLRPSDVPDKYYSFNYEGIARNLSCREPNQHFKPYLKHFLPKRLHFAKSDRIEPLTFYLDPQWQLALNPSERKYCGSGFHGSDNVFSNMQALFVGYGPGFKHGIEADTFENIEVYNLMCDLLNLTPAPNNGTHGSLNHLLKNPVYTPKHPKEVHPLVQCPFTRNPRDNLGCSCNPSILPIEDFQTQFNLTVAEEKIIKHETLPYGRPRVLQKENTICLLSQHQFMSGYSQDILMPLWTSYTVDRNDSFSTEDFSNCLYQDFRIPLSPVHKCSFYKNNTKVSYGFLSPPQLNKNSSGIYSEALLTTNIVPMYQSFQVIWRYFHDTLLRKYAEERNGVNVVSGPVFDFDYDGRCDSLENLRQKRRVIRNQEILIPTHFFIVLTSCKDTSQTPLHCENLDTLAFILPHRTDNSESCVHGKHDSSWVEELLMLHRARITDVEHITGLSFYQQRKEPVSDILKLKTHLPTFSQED
ENPP-1 ECD, sequence (P22413 98-925): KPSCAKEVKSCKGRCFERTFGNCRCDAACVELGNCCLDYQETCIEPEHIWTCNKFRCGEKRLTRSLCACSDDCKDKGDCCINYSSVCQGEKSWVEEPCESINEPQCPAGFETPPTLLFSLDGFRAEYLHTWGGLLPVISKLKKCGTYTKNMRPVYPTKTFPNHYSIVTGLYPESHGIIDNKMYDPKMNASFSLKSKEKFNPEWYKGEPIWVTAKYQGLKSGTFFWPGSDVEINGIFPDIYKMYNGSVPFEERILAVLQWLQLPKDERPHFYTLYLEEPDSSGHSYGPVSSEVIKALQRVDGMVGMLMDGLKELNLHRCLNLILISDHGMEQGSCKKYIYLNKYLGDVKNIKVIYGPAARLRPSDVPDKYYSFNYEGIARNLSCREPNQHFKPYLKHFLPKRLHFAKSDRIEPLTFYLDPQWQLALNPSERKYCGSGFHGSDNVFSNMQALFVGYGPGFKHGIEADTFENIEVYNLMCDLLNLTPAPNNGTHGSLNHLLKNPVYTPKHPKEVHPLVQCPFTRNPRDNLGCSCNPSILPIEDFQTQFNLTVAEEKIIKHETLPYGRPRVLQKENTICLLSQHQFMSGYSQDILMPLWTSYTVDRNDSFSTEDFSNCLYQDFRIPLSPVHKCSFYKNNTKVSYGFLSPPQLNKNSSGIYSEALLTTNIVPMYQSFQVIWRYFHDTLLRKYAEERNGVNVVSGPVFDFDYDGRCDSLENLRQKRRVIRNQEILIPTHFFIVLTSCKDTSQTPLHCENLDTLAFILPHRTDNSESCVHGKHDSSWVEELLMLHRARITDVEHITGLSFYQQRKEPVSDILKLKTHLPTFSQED
Description for ENPP-1 ECD: Test compounds were plated in a 3× dilution scheme in a 384 well plate.

Consider `CN(C)c1c(Cc2ccc(S(C)(=N)=O)cc2)c(Cl)nc2ncnn12` (stereo not shown) [Compound 74, (4-{[5-chloro-7-(dimethylamino)-[1,2,4]triazolo[1,5-a]pyrimidin-6-yl]methyl}phenyl)(imino)methyl-λ^6-sulfanone], for which the Ki was less than 3 nM on ENPP-1 ECD (setting [2]); 7.13 nM in assay [1] (read-out: Assay 2 KI, app); less than 10 nM in assay [1] (setting [3]).
In the case of `CS(=N)(=O)c1ccc(Cc2cnc3ncnn3c2N2CCCC2)cc1` (stereo not shown) [Compound 54], the Ki on ENPP-1 ECD (setting [4]) was less than 3 nM; at ENPP-1 ECD (setting [5]), 1.71 nM; in assay [1] (read-out: Assay 2 KI, app) it was 74.7 nM; in assay [1] (setting [3]) it was greater than 10 nM.
On to `COc1nc2ncnn2c(N(C)C)c1Cc1ccc([S@@](C)(=N)=O)cc1` [Compound 88a], for which the Ki at ENPP-1 ECD (setting [5]) turned out to be 0.00586 nM; in assay [1] (read-out: Assay 2 KI, app), 0.222 nM.
In the case of `CCc1nc2ncnn2c(N2CCCC2)c1Cc1ccc(S(C)(=N)=O)cc1` (stereo not shown) [Compound 50, (4-{[5-ethyl-7-(pyrrolidin-1-yl)-[1,2,4]triazolo[1,5-a]pyrimidin-6-yl]methyl}phenyl)(imino)methyl-λ^6-sulfanone], the Ki on ENPP-1 ECD (setting [2]) was less than 3 nM; in assay [1] (read-out: Assay 2 KI, app) it was 15.7 nM; in assay [1] (setting [3]), greater than 10 nM.
With `CC(=O)NCCS(=N)(=O)c1ccc(Cc2c(C)nc3ncnn3c2N(C)C)cc1` (stereo not shown) [Compound 64, N-{2-[(4-{[7-(dimethylamino)-5-methyl-[1,2,4]triazolo[1,5-a]pyrimidin-6-yl]methyl}phenyl)(imino)oxo-λ^6-sulfanyl]ethyl}acetamide], the Ki at ENPP-1 ECD (setting [2]) was less than 3 nM; at ENPP-1 ECD (setting [5]), 0.0667 nM; in assay [1] (read-out: Assay 2 KI, app), 4.41 nM; in assay [1] (setting [3]), less than 10 nM.
Take `Cc1nc2ncnn2c(N(C)C)c1Cc1ccc(S(=N)(=O)Cc2ccccc2)cc1` (stereo not shown) [Compound 55, benzyl(4-((7-(dimethylamino)-5-methyl-[1,2,4]triazolo[1,5-a]pyrimidin-6-yl)methyl)phenyl)(imino)-λ^6-sulfanone]: the Ki is less than 3 nM on ENPP-1 ECD (setting [2]) and 1.65 nM in assay [1] (read-out: Assay 2 KI, app).
`Cc1nc2ncnn2c(N2CCCC2)c1Cc1ccc([S@](C)(=N)=O)cc1` (single isomer, unassigned) [Compound 8a]: the Ki at ENPP-1 ECD (setting [4]) was less than 3 nM; at ENPP-1 ECD (setting [5]) it was 0.054 nM; in assay [1] (read-out: Assay 2 KI, app), 9.73 nM; in assay [1] (setting [3]) it was less than 10 nM.
Take `CS(=N)(=O)c1ccc(Cc2c(Cl)nc3ncnn3c2N2CCCC2)cc1` (stereo not shown) [Compound 78, (4-{[5-chloro-7-(pyrrolidin-1-yl)-[1,2,4]triazolo[1,5-a]pyrimidin-6-yl]methyl}phenyl)(imino)methyl-λ^6-sulfanone]: the Ki on ENPP-1 ECD (setting [2]) is less than 3 nM; in assay [1] (read-out: Assay 2 KI, app), 24.1 nM; in assay [1] (setting [3]), greater than 10 nM.
Regarding `CCN(C)c1c(Cc2ccc(S(C)(=N)=O)cc2)c(C)nc2ncnn12` (stereo not shown) [Compound 12, (4-((7-(ethyl(methyl)amino)-5-methyl-[1,2,4]triazolo[1,5-a]pyrimidin-6-yl)methyl)phenyl)(imino)(methyl)-λ^6-sulfanone], the Ki is less than 3 nM at ENPP-1 ECD (setting [2]); 0.479 nM on ENPP-1 ECD (setting [5]); 48.9 nM in assay [1] (read-out: Assay 2 KI, app); greater than 10 nM in assay [1] (setting [3]).
As to `[2H]C([2H])([2H])N(c1c(Cc2ccc(S(C)(=N)=O)cc2)c(C)nc2ncnn12)C([2H])([2H])[2H]` (stereo not shown) [Compound 49, [4-[{7-[di(^2H3)methylamino]-5-methyl-[1,2,4]triazolo[1,5-a]pyrimidin-6-yl}methyl)phenyl](imino)methyl-λ^6-sulfanone], the Ki was less than 3 nM on ENPP-1 ECD (setting [2]); 0.0621 nM on ENPP-1 ECD (setting [5]); 4.7 nM in assay [1] (read-out: Assay 2 KI, app); less than 10 nM in assay [1] (setting [3]).
For the compound `Cc1cc2ncnn2c(N(C)C)c1Cc1ccc(S(C)(=N)=O)cc1` (stereo not shown) [Compound 28, (4-{[5-(dimethylamino)-7-methyl-[1,2,4]triazolo[1,5-a]pyridin-6-yl]methyl}phenyl)(imino)methyl-λ^6-sulfanone], the Ki was less than 3 nM at ENPP-1 ECD (setting [2]); less than 0.027 nM on ENPP-1 ECD (setting [5]); 1.06 nM in assay [1] (read-out: Assay 2 KI, app); less than 10 nM in assay [1] (setting [3]).
